Results taken from patent publication US6369061B1, “Therapeutic agent for spinal canal stenosis” (Mitsubishi Pharma Corporation, priority 1998, dated 2002).

Test system: rabbit acute spinal canal stenosis model
Assay: Rabbit cauda equina nerve graded constriction model as rabbit acute spinal canal stenosis model (nerve conduction velocity, tissue blood flow, tissue oxygen tension)
Type: in vivo
Conditions: for Cauda equina nerve conduction velocity / Cauda equina nerve tissue blood flow / Cauda equina nerve tissue oxygen tension: measured 8 days after model preparation, mean ± standard error
Protocol: Effects of compound A on cauda equina nerve conduction velocity, cauda equina nerve tissue blood flow and variation in cauda equina nerve tissue oxygen tension in a rabbit acute spinal canal stenosis model
(1) Preparation of the Rabbit Cauda Equina Nerve Graded Constriction Model as Rabbit Acute Spinal Canal Stenosis Model Male Japanese white rabbits were fixed at the abdominal position under anesthesia by an intravenous injection of pentobarbital sodium (25 mg/kg, DAINIPPON PHARMACEUTICAL CO., LTD.) and the vertebral arch of the fifth lumbar vertebra was removed under a microscope (OLYMPUS OME) observation to expose cauda equina nerve. After the cauda equina nerve fascicle was gently ligated at one site together with a 26 G injection needle using a catgut suture (chromic catgut (thread 4-0, needle 12.9 mm), Johnson and Johnson), the injection needle was pulled out, and the dissected portion was sutured. In the sham operation group, the cauda equina nerve was only exposed and the dissected portion was sutured.
The rabbits were grouped in turn into a sham operation group (6 rabbits), a solvent group (6 rabbits), a compound A (3 mg/kg) administration group (6 rabbits), a compound A (10 mg/kg) administration group (6 rabbits), a compound A (30 mg/kg) administration group (6 rabbits), and a cilostazol (300 mg/kg, the same anti-platelet drug as compound A as a control drug, Otsuka Pharmaceutical Co., Ltd.) administration group (6 rabbits).
The drug was prepared into the volume of 5 mL/kg by suspending in 0.5% methylcellulose solution, and orally administered repeatedly once a day for 7 consecutive days from the next day of the model preparation. The 0.5% methylcellulose solution (5 mL/kg) was administered in the same manner to the solvent group. Nothing was administered to the sham operation group.
The next day of the final administration (8 days after model animals preparation), the model animals were anesthetized by an intravenous injection of pentobarbital sodium (25 mg/kg) and, after insertion of a tracheal catheter, fixed at the abdominal position. The rabbits were connected to a ventilator (45 times/min) and given pancuronium bromide (0.08 mg/kg, Sankyo Co., Ltd.) by an intravenous administration. The cauda equina nerve tissue blood flow in the downstream portion of the ligation site was measured transdurally using a laser blood flowmeter [ADVANCED LASER FLOWMETER, ALF2100, Advance] under the microscope observation. The cauda equina nerve tissue oxygen tension was measured at the same site using a pO2 monitor (model POG-201, Unique Medical Co. Ltd.). The cauda equina nerve conduction velocity was obtained by deriving the action potential induced by a spinal electric stimulus in the upper point and lower point of the ligation site and dividing the distance between the both points by the difference in the rise latent time (SIGNAL PROCESSOR, San-ei).
The obtained results are shown in mean±standard error. Using SAS (Statistical Analysis System), the following statistical analysis was performed. The sham operation group and the solvent group were compared by the Student's t-test. The effect of the drug was verified by the Dunnett's method to the solvent group as a control. In both tests, p<0.05 was taken as statistically significant.

[1] = 300 mg/kg p.o. once a day for 7 days
[2] = 300 mg/kg p.o., vs. solvent group
[3] = 3 mg/kg p.o. once a day for 7 days
[4] = 10 mg/kg p.o. once a day for 7 days
[5] = 30 mg/kg p.o. once a day for 7 days

SMILES	Cauda equina nerve conduction velocity [1] [cm/ms]	Cauda equina nerve tissue blood flow [1] [ml/min. 100 g tissue]	Cauda equina nerve tissue oxygen tension [1] [mmHg]	Effect on cauda equina nerve conduction velocity (in words) [2]	Effect on cauda equina nerve tissue blood flow (in words) [2]	Effect on cauda equina nerve tissue oxygen tension (in words) [2]	Cauda equina nerve conduction velocity [3] [cm/ms]	Cauda equina nerve tissue blood flow [3] [ml/min. 100 g tissue]	Cauda equina nerve tissue oxygen tension [3] [mmHg]	Cauda equina nerve conduction velocity [4] [cm/ms]	Cauda equina nerve tissue blood flow [4] [ml/min. 100 g tissue]	Cauda equina nerve tissue oxygen tension [4] [mmHg]	Cauda equina nerve conduction velocity [5] [cm/ms]	Cauda equina nerve tissue blood flow [5] [ml/min. 100 g tissue]	Cauda equina nerve tissue oxygen tension [5] [mmHg]	Effect on cauda equina nerve tissue blood flow (in words) (30 mg/kg p.o., vs. solvent group)	Effect on decrease in cauda equina nerve conduction velocity (in words) (3, 10, 30 mg/kg p.o., vs. solvent group)	Effect on cauda equina nerve tissue oxygen tension (in words) (3, 10, 30 mg/kg p.o., vs. solvent group, significant at 30 mg/kg)
O=C1CCc2cc(OCCCCc3nnnn3C3CCCCC3)ccc2N1 [Cilostazol, cilostazol, reference compound]	14.585 ± 2.606	21.88 ± 4.25	33.7 ± 5.3	did not improve the velocity	not improved	did not show an increasing effect	–	–	–	–	–	–	–	–	–	–	–	–
Cl.O=c1[nH]nc(OCCCc2ccc(Cl)cc2)c(NCc2cccnc2)c1Br [Compound A, 4-bromo-6-[3-(4-chlorophenyl)propoxy]-5-(3-pyridylmethylamino)-3(2H)-pyridazinone hydrochloride]	–	–	–	–	–	–	20.327 ± 4.871	23.33 ± 4.59	35.5 ± 5.6	22.838 ± 3.571	24.42 ± 2.70	42.8 ± 5.8	27.098 ± 3.627	33.67 ± 4.21	49.8 ± 3.4	significantly increased	significantly lessened the decrease in a dose-dependent manner	showed a dose-dependent increase
